Values quoted from earlier work as cited in patent publication US12318470B2, “Agent for dyeing keratinuos material, comprising aminosilicone, a chromophoric compound and an addition product of C1-C6 alkylene oxide(s) to the esters of fatty acids and aromatic alcohols” (Henkel AG & Co. KGaA, priority 2020, dated 2025).

Key:
[1] = 25° C.
[2] = 5% solution in water

| Compound | solubility in water [1] | also measured |
| --- | --- | --- |
| O=S(=O)([O-])c1ccc(N=Nc2c(O)ccc3ccccc23)cc1.[Na+] [Acid Orange 7, sodium salt of 4-[(2-hydroxy-1-naphthyl)azo]benzene sulphonate] | more than 7 g/L | – |
| Nc1cc(S(=O)(=O)[O-])cc2cc(S(=O)(=O)[O-])c(N=Nc3ccccc3)c(O)c12.[Na+].[Na+] [Acid Red 33, diantrium salt of 5-amino-4-hydroxy-3-(phenylazo)-naphthalene-2,7-disulphonate] | 2500 µg/mL | – |
| O=C([O-])c1c(Cl)c(Cl)c(Cl)c(Cl)c1-c1c2c(Br)cc(=O)c(Br)c-2oc2c(Br)c(O)cc(Br)c12.O=C([O-])c1c(Cl)c(Cl)c(Cl)c(Cl)c1-c1c2c(Br)cc(=O)c(Br)c-2oc2c(Br)c(O)cc(Br)c12.[Na+].[Na+] [Acid Red 92, disodium salt of 3,4,5,6-tetrachloro-2-(1,4,5,8-tetrabromo-6-hydroxy-3-oxoxanthen-9-yl)benzoic acid] | greater than 10 g/L | – |
| O=C([O-])C1=NN(c2ccc(S(=O)(=O)[O-])cc2)C(=O)C1N=Nc1ccc(S(=O)(=O)[O-])cc1.[Na+].[Na+].[Na+] (centres unmarked) [Acid Yellow 23, trisodium salt of 4,5-dihydro-5-oxo-1-(4-sulfophenyl)-4-((4-sulfophenyl)azo)-1H-pyrazole-3-carboxylic acid] | – | solubility in water (in words) [1]: readily soluble |
| O=P([O-])(O)O.[K+] [Potassium dihydrogen phosphate] | – | pH value of solution in water [2]: 4.4 |
